Laboratory results published in US20120197004A1, “NOVEL ANTI-MICROBIAL PEPTIDOMIMETIC COMPOUNDS AND METHODS TO CALCULATE ANTI-MICROBIAL ACTIVITY” (priority 2006, published 2012).
Where a SMILES comes first, the peptide text is derived from it. [ ]: non-standard residue; d: D form. Oic = O=C(O)[C@@H]1C[C@@H]2CCCC[C@@H]2N1; Tic = O=C(O)[C@@H]1Cc2ccccc2CN1; GABA = NCCCC(=O)O

Test system: Mycobacterium ranae (ATCC 110)
Settings: in vitro

CC(=O)NCCCC(=O)N[C@@H](Cc1ccccc1)C(=O)N1Cc2ccccc2C[C@H]1C(=O)N1[C@H](C(=O)NCCCC(=O)N[C@@H](CCCCN)C(=O)N2Cc3ccccc3C[C@H]2C(=O)N2[C@H](C(=O)NCCCC(=O)N[C@@H](Cc3ccccc3)C(=O)N3Cc4ccccc4C[C@H]3C(=O)N3[C@H](C(=O)NCCCC(=O)N[C@@H](CCCCN)C(=O)N4Cc5ccccc5C[C@H]4C(=O)N[C@@H](CCCCN)C(=O)N[C@@H](CCCCN)C(=O)N[C@@H](CCCCN)C(=O)N[C@@H](CCCCN)C(=O)N[C@@H](CCCCN)C(N)=O)C[C@@H]4CCCC[C@@H]43)C[C@@H]3CCCC[C@@H]32)C[C@@H]2CCCC[C@@H]21 [FKAB-1Gd3, Ac-Gaba-F-Tic-Oic-Gaba-K-Tic-Oic-Gaba-F-Tic-Oic-Gaba-K-Tic-KKKKK-CONH2] (Ac-[GABA]F[Tic][Oic][GABA]K[Tic][Oic][GABA]F[Tic][Oic][GABA]K[Tic]KKKKK-NH2)
selectivity for Mycobacterium ranae over Staphylococcus aureus ME/GM/TC resistant: 10 fold
